Test results as given in patent US12134610B2, “Somatostatin subtype-2 receptor (SST2R) targeted therapeutics and uses thereof” (priority 2022, dated 2024).
Where two headings read alike, the source gives them in different places. Starred links: 1 amine or outer side, 2 acyl side, 3 side chain; linkers in the order of their positions; H or OH if unused. Non-standard residues stand in square brackets, D forms with d. Residues, ends and D or L forms follow the SMILES beside them. *: point of attachment. X1 = Cc1cc(F)cc(-c2cnc(NCCNC(=O)CCOCCC(=O)*)c(-c3nc4ccc(Cl)cc4[nH]3)c2N2CCC(N)CC2)c1; Dolaproine = CO[C@@H]([C@@H]1CCCN1)[C@@H](C)C(=O)O; Dil = CC[C@H](C)[C@H](NC)[C@@H](CC(=O)O)OC; PABC = O=C(OCc1ccc(N[*:1])cc1)[*:2]; X2 = C[C@@H](N*)[C@@H](O)c1ccccc1; Cya = N[C@@H](CS(=O)(=O)O)C(=O)O; Cit = NC(=O)NCCC[C@H](N)C(=O)O; NMeV = CN[C@H](C(=O)O)C(C)C

How the values were obtained:
Type in all cases: cell-based
[1] = target: T1, human somatostatin receptor subtype 2 (Homo sapiens, UniProt P30874); experiment: Functional cAMP assay for SSTR2 agonists (HTRF) in CHO-K1 cells; conditions: CHO-K1 cells stably expressing human SST2, 20 min
T1 construct: expressed in transfected cells
T1 sequence (P30874 whole entry): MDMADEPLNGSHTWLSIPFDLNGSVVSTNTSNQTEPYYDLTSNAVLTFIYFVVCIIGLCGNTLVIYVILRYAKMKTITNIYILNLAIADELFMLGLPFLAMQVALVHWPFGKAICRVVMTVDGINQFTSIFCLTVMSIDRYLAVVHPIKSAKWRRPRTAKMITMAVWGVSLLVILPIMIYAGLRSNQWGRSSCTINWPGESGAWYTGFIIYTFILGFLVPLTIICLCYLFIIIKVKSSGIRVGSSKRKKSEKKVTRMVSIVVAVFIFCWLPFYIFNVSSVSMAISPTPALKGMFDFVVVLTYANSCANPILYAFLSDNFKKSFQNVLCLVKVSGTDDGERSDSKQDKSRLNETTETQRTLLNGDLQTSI
Outline: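 Agonism scored as loss of NKH477 (1.6 μM)-driven cAMP, with IBMX present, after 20 min, 37° C. exposure of stably transfected CHO-K1 cells to compound dilutions (typically 0-10,000 nM). Lysates read by time-resolved FRET; cAMP interpolated from standard curve and EC50 derived.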

[2] = test system: NCI-H524 (ATCC) human small cell lung cancer cells
Outline: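 CellTiter-Glo luminescence after a 2 h SMDC pulse (top dose 1 uM, 2-fold dilutions, 11 points), medium wash, then 70 h recovery. Cells were seeded at 5,000/well and dosed 24 h later. % inhibition vs control gave IC50 via four-parameter fit.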

[3] = target: T2, SST2 (Homo sapiens, UniProt P30874); experiment: PathHunter CHO-K1 SST2 internalization assay; conditions: PathHunter CHO-K1 SST2, 90 min
T2 construct: host or cells: PathHunter CHO-K1 SST2 cells
T2 sequence (P30874 whole entry): as above
Outline: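 IC50 comes from four-parameter curves on background-corrected duplicates of Beta-Glo luminescence, read after 60 min at room temperature in the dark. Before that, CHO-K1 SST2 internalization cells (48 h post-seeding) received SMDC as eleven threefold dilutions, 10 uM highest final, for 90 min at 37 C.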

| Compound | EC50 ([1]; read-out: hSST2 cAMP Avg EC50) | EC50 ([2]; 2 h) | EC50 ([3]; read-out: Internalization EC50) | EC50 ([1]; hSST2 cAMP Avg EC50 (nM)) | EC50 ([2]; 2 h treatment, washout, additional 70 h, read-out: H524 EC50) | EC50 ([3]; Internalization EC50 (nM)) |
| --- | --- | --- | --- | --- | --- | --- |
| CC[C@H](C)[C@@H]([C@@H](CC(=O)N1CCC[C@H]1[C@H](OC)[C@@H](C)C(=O)N[C@H](C)[C@@H](O)c1ccccc1)OC)N(C)C(=O)[C@@H](NC(=O)[C@H](C(C)C)N(C)C(=O)OCc1ccc(NC(=O)[C@H](C)NC(=O)[C@@H](NC(=O)[C@H](CCC(=O)O)NC(=O)CCCCCC(=O)NCCNc2ncc(-c3cc(C)cc(F)c3)c(N3CCC(N)CC3)c2-c2nc3ccc(Cl)cc3[nH]2)C(C)C)cc1C(=O)NCCN)C(C)C [Compound 120] | 0.19 nM | 2.4 nM | 2.7 nM |  |  |  |
| CC[C@H](C)[C@@H]([C@@H](CC(=O)N1CCC[C@H]1[C@H](OC)[C@@H](C)C(=O)N[C@H](C)[C@@H](O)c1ccccc1)OC)N(C)C(=O)[C@@H](NC(=O)[C@H](C(C)C)N(C)C(=O)OCc1ccc(NC(=O)[C@H](CCCNC(N)=O)NC(=O)[C@@H](NC(=O)[C@H](CS(=O)(=O)O)NC(=O)[C@H](CCC(=O)O)NC(=O)CCOCCC(=O)NCCNc2ncc(-c3cc(C)cc(F)c3)c(N3CCC(N)CC3)c2-c2nc3ccc(Cl)cc3[nH]2)C(C)C)cc1)C(C)C [Compound 105] (X1-E[Cya]V[Cit][PABC][NMeV]V[Dil][Dolaproine]-X2) | 0.18 nM | 290 nM | 14 nM |  |  |  |
| CC[C@@]1(O)C(=O)OCc2c1cc1n(c2=O)Cc2c-1nc1cc(F)c(C)c3c1c2[C@@H](NC(=O)OCc1ccc(NC(=O)[C@H](CCCNC(N)=O)NC(=O)[C@@H](NC(=O)CCOCCC(=O)NCCNc2ncc(-c4cc(C)cc(F)c4)c(N4CCC(N)CC4)c2-c2nc4ccc(Cl)cc4[nH]2)C(C)C)cc1C(=O)NCCN)CC3 [Compound 90] |  |  |  | 0.22 nM | 71 nM | 4.8 nM |
| CC[C@H](C)[C@@H]([C@@H](CC(=O)N1CCC[C@H]1[C@H](OC)[C@@H](C)C(=O)N[C@H](C)[C@@H](O)c1ccccc1)OC)N(C)C(=O)[C@@H](NC(=O)[C@H](C(C)C)N(C)C(=O)OCc1ccc(NC(=O)[C@H](CCCNC(N)=O)NC(=O)[C@@H](NC(=O)CCOCCOCCOCCOCCC(=O)NCCNc2ncc(-c3cc(C)cc(F)c3)c(N3CCC(N)CC3)c2-c2nc3ccc(Cl)cc3[nH]2)C(C)C)cc1C(=O)NCC(N)=O)C(C)C [Compound 124] | 0.16 nM | 5.3 nM | 5.6 nM |  |  |  |
| CC[C@H](C)[C@@H]([C@@H](CC(=O)N1CCC[C@H]1[C@H](OC)[C@@H](C)C(=O)N[C@H](C)[C@@H](O)c1ccccc1)OC)N(C)C(=O)[C@@H](NC(=O)[C@H](C(C)C)N(C)C(=O)OCc1ccc(NC(=O)[C@H](CCCNC(N)=O)NC(=O)[C@@H](NC(=O)CCOCCOCCOCCOCCC(=O)NCCNc2ncc(-c3cc(C)cc(F)c3)c(N3CCC(N)CC3)c2-c2nc3ccc(Cl)cc3[nH]2)C(C)C)cc1C(=O)NCCNC(=O)CCOCCOCCOCCOCCN)C(C)C [Compound 48] | 0.26 nM | 12.4 nM | 6.9 nM |  |  |  |
| CC[C@H](C)[C@@H]([C@@H](CC(=O)N1CCC[C@H]1[C@H](OC)[C@@H](C)C(=O)N[C@H](C)[C@@H](O)c1ccccc1)OC)N(C)C(=O)[C@@H](NC(=O)[C@H](C(C)C)N(C)C(=O)OCc1ccc(NC(=O)[C@H](CCCNC(N)=O)NC(=O)[C@@H](NC(=O)[C@H](CS(=O)(=O)O)NC(=O)CCOCCC(=O)NCCNc2ncc(-c3cc(C)cc(F)c3)c(N3CCC(N)CC3)c2-c2nc3ccc(Cl)cc3[nH]2)C(C)C)cc1)C(C)C [Compound 83] (X1-[Cya]V[Cit][PABC][NMeV]V[Dil][Dolaproine]-X2) | 0.11 nM | 20 nM | 2.9 nM |  |  |  |
| Cc1cc(F)cc(-c2cnc(NCCNC(=O)CCOCCC(=O)NCCNC(=O)c3c(C)[nH]c(/C=C4\C(=O)Nc5ccc(F)cc54)c3C)c(-c3nc4ccc(Cl)cc4[nH]3)c2N2CCC(N)CC2)c1 [Compound 29, N-(2-{[4-(4-aminopiperidin-1-yl)-3-(6-chloro-1H-1,3-benzodiazol-2-yl)-5-(3-fluoro-5-methylphenyl)pyridin-2-yl]amino}ethyl)-3-[2-({2-[(5-{[(3Z)-5-fluoro-2-oxo-2,3-dihydro-1H-indol-3-ylidene]methyl}-2,4-dimethyl-1H-pyrrol-3-yl)formamido]ethyl}carbamoyl)ethoxy]propenamide] | 0.065 nM | > 10000 nM | 2.2 nM |  |  |  |
| CC[C@H](C)[C@@H]([C@@H](CC(=O)N1CCC[C@H]1[C@H](OC)[C@@H](C)C(=O)N[C@H](C)[C@@H](O)c1ccccc1)OC)N(C)C(=O)[C@@H](NC(=O)[C@H](C(C)C)N(C)C(=O)OCc1ccc(NC(=O)[C@H](CCCNC(N)=O)NC(=O)[C@@H](NC(=O)[C@H](CCC(=O)O)NC(=O)CCOCCOCCOCCOCCC(=O)NCCNc2ncc(-c3cc(C)cc(F)c3)c(N3CCC(N)CC3)c2-c2nc3ccc(Cl)cc3[nH]2)C(C)C)c(O[C@@H]2O[C@H](C(=O)O)[C@@H](O)[C@H](O)[C@H]2O)c1)C(C)C [Compound 144] | 0.21 nM | 120 nM | 6.9 nM |  |  |  |
| CC[C@H](C)[C@@H]([C@@H](CC(=O)N1CCC[C@H]1[C@H](OC)[C@@H](C)C(=O)N[C@H](C)[C@@H](O)c1ccccc1)OC)N(C)C(=O)[C@@H](NC(=O)[C@H](C(C)C)N(C)C(=O)OCc1ccc(NC(=O)[C@H](CCCNC(N)=O)NC(=O)[C@@H](NC(=O)CCOCCOCCOCCOCCNCCNc2ncc(-c3cc(C)cc(F)c3)c(N3CCC(N)CC3)c2-c2nc3ccc(Cl)cc3[nH]2)C(C)C)c(O[C@@H]2O[C@H](C(=O)O)[C@@H](O)[C@H](O)[C@H]2O)c1)C(C)C [Compound 129] | 0.34 nM | 290 nM | 21 nM |  |  |  |
| CC[C@H](C)[C@@H]([C@@H](CC(=O)N1CCC[C@H]1[C@H](OC)[C@@H](C)C(=O)N[C@H](C)[C@@H](O)c1ccccc1)OC)N(C)C(=O)[C@@H](NC(=O)[C@H](C(C)C)N(C)C(=O)OCc1ccc(NC(=O)[C@H](CCCNC(N)=O)NC(=O)[C@@H](NC(=O)CN2CCN(CC(=O)NCCOCCOCCOCCOCCC(=O)NCCNc3ncc(-c4cc(C)cc(F)c4)c(N4CCC(N)CC4)c3-c3nc4ccc(Cl)cc4[nH]3)CCN(CC(=O)NCCOCCOCCOCCOCCC(=O)NCCNc3ncc(-c4cc(C)cc(F)c4)c(N4CCC(N)CC4)c3-c3nc4ccc(Cl)cc4[nH]3)CC2)C(C)C)cc1)C(C)C [Compound 46] | 0.54 nM | 85.9 nM | 26.1 nM |  |  |  |
| CC[C@H](C)[C@@H]([C@@H](CC(=O)N1CCC[C@H]1[C@H](OC)[C@@H](C)C(=O)N[C@H](C)[C@@H](O)c1ccccc1)OC)N(C)C(=O)[C@@H](NC(=O)[C@H](C(C)C)N(C)C(=O)OCc1ccc(NC(=O)[C@H](CCCNC(N)=O)NC(=O)[C@@H](NC(=O)[C@H](CCC(=O)O)NC(=O)CCOCCC(=O)NCCNc2ncc(-c3cc(C)cc(F)c3)c(N3CCC(N)CC3)c2-c2nc3ccc(Cl)cc3[nH]2)C(C)C)cc1)C(C)C [Compound 36] (X1-EV[Cit][PABC][NMeV]V[Dil][Dolaproine]-X2) | 0.25 nM | 44.1 nM | 12.9 nM |  |  |  |
| CC[C@H](C)[C@@H]([C@@H](CC(=O)N1CCC[C@H]1[C@H](OC)[C@@H](C)C(=O)N[C@H](C)[C@@H](O)c1ccccc1)OC)N(C)C(=O)[C@@H](NC(=O)[C@H](C(C)C)N(C)C(=O)OCc1ccc(NC(=O)[C@H](CCCNC(N)=O)NC(=O)[C@@H](NC(=O)[C@@H](CC(=O)O)NC(=O)[C@@H](CC(=O)O)NC(=O)[C@@H](CC(=O)O)NC(=O)CCOCCC(=O)NCCNc2ncc(-c3cc(C)cc(F)c3)c(N3CCC(N)CC3)c2-c2nc3ccc(Cl)cc3[nH]2)C(C)C)cc1)C(C)C [Compound 109] (X1-[dD][dD][dD]V[Cit][PABC][NMeV]V[Dil][Dolaproine]-X2) | 0.7 nM | 2500 nM | 11 nM |  |  |  |
| CCC(C)C(C(CC(=O)N1CCCC1C(OC)C(C)C(=O)NC(C)C(O)c1ccccc1)OC)N(C)C(=O)C(NC(=O)C(C(C)C)N(C)C(=O)OCc1ccc(NC(=O)[C@H](CCCNC(N)=O)NC(=O)[C@@H](NC(=O)CCOCCOCCOCCOCCC(=O)NCCNc2ncc(-c3cc(C)cc(F)c3)c(N3CCC(N)CC3)c2-c2nc3ccc(Cl)cc3[nH]2)C(C)C)cc1)C(C)C (stereo in doubt) [Compound 25] | 0.34 nM | 25 nM | 27 nM |  |  |  |
| CC[C@H](C)[C@@H]([C@@H](CC(=O)N1CCC[C@H]1[C@H](OC)[C@@H](C)C(=O)N[C@H](C)[C@@H](O)c1ccccc1)OC)N(C)C(=O)[C@@H](NC(=O)[C@H](C(C)C)N(C)C(=O)OCc1ccc(NC(=O)[C@H](CCCNC(N)=O)NC(=O)[C@@H](NC(=O)CCOCCOCCC(=O)NCCNc2ncc(-c3cc(C)cc(F)c3)c(N3CCC(N)CC3)c2-c2nc3ccc(Cl)cc3[nH]2)C(C)C)c(O[C@@H]2O[C@H](C(=O)O)[C@@H](O)[C@H](O)[C@H]2O)c1)C(C)C [Compound 137] | 0.51 nM | 6.7 nM | 4.6 nM |  |  |  |
| CC[C@H](C)[C@@H]([C@@H](CC(=O)N1CCC[C@H]1[C@H](OC)[C@@H](C)C(=O)N[C@H](C)[C@@H](O)c1ccccc1)OC)N(C)C(=O)[C@@H](NC(=O)[C@H](C(C)C)N(C)C(=O)OCc1ccc(NC(=O)[C@H](CCCNC(N)=O)NC(=O)[C@@H](NC(=O)CCOCCOCCOCCOCCC(=O)NCCNc2ncc(-c3cc(C)cc(F)c3)c(N3CCC(N)CC3)c2-c2nc3ccc(Cl)cc3[nH]2)C(C)C)cc1C(N)=O)C(C)C [Compound 123] | 0.13 nM | 18 nM | 7 nM |  |  |  |
